pIC50: −log10 of the molar value. A value given as a limit tells only on which side of the number the result lay.

One assay has as its target human autotaxin (Homo sapiens (Human), UniProt Q13822). The assay can be described thus: Human Autotaxin Assay. The assay is classed as biochemical.
Settings: not given
As to the method:
ATX activity is assayed in concentrated conditioned media from Hep3B human hepatocellular carcinoma cells by measuring the amount of choline released from the substrate, lysophosphatidylcholine (LPC) as it is cleaved to LPA. Conditioned media is collected from confluent Hep3B cells and concentrated 20-fold using Centriprep-30 filter devices (Millipore). […] 100 μl of a color mix containing 4.5 mM 4-aminoantipyrine, 2.7 mM N-ethyl-N-(2-hydroxy-3-sulfopropyl)-m-toluidine, 21 units/ml horseradish peroxidase and 3 units/ml choline oxidase in 50 mM Tris, pH 8, 4.5 mM MgCl2 is added and the incubation continued for 15 minutes at room temperature before reading the absorbance at 555 nm.
The molecule `N#C/C(=C\c1cn(Cc2ccc(F)cc2)c2nc(Cl)ccc12)c1ccc(C(=O)O)cc1` [Compound 3-3, (Z)-4-(2-(6-chloro-1-(4-fluorobenzyl)-1H-pyrrolo[2,3-b]pyridin-3-yl)-1-cyanovinyl)benzoic acid] had a pIC50 of 5.00 to 6.30.

Staying with this assay, now noted: ATX in concentrated conditioned media from Hep3B cells; choline released from LPC substrate; read-out: IC50.
Consider `N#C/C(=C\c1nn(Cc2ccc(F)cc2)c2cc(Cl)ccc12)c1ccc(C(=O)O)cc1` [Compound 1-1, (Z)-4-(2-(6-chloro-1-(4-fluorobenzyl)-1H-indazol-3-yl)-1-cyanovinyl)benzoic acid], for which the negative-log IC50 (pIC50) is above 6.30. In the case of `N#C/C(=C\c1nn(Cc2ccccc2)c2cc(Cl)ccc12)c1ccc(C(=O)O)cc1` [Compound 1-2, (Z)-4-(2-(1-benzyl-6-chloro-1H-indazol-3-yl)-1-cyanovinyl)benzoic acid], the pIC50 is above 6.30. Take `N#C/C(=C\c1nn(Cc2cc(Cl)cc(Cl)c2)c2cc(Cl)ccc12)c1ccc(C(=O)O)cc1` [Compound 1-3]: the pIC50 is 5.00 to 6.30.

Take `N#C/C(=C\c1nn(Cc2cc(C(F)(F)F)cc(C(F)(F)F)c2)c2cc(Cl)ccc12)c1ccc(C(=O)O)cc1` [Compound 1-4, (Z)-4-(2-(1-(3,5-bis(trifluoromethyl)benzyl)-6-chloro-1H-indazol-3-yl)-1-cyanovinyl)benzoic acid]: the pIC50 was 5.00 to 6.30.

Consider `Cn1ccc(Cn2nc(/C=C(\C#N)c3ccc(C(=O)O)cc3)c3ccc(Cl)cc32)n1` [Compound 1-5, (Z)-4-(2-(6-chloro-1-((1-methyl-1H-pyrazol-3-yl)methyl)-1H-indazol-3-yl)-1-cyanovinyl)benzoic acid], for which the negative-log IC50 (pIC50) was below 5.00. For the molecule `N#C/C(=C\c1nn(Cc2ccc(Cl)nc2)c2cc(Cl)ccc12)c1ccc(C(=O)O)cc1` [Compound 1-6, (Z)-4-(2-(6-chloro-1-((6-chloropyridin-3-yl)methyl)-1H-indazol-3-yl)-1-cyanovinyl)benzoic acid], the pIC50 was above 6.30.

Take `COc1ccc(Cn2nc(/C=C(\C#N)c3ccc(C(=O)O)cc3)c3ccc(Cl)cc32)cn1` [Compound 1-7, (Z)-4-(2-(6-chloro-1-((6-methoxypyridin-3-yl)methyl)-1H-indazol-3-yl)-1-cyanovinyl)benzoic acid]: the pIC50 is above 6.30. On the same count and under the same terms, as for `O=C(O)c1ccc(/C=C/c2nn(Cc3ccc(F)cc3)c3cc(Cl)ccc23)cc1` [Compound 1-8, (E)-4-(2-(6-chloro-1-(4-fluorobenzyl)-1H-indazol-3-yl)vinyl)benzoic acid], the figure is 5.00 to 6.30. The same measure, in the same setting: as for `N#C/C(=C\c1cn(Cc2ccc(F)cc2)c2ncccc12)c1ccc(C(=O)O)cc1` [Compound 3-1, (Z)-4-(1-cyano-2-(1-(4-fluorobenzyl)-1H-pyrrolo[2,3-b]pyridin-3-yl)vinyl)benzoic acid], the figure is above 6.30; as for `COc1ccc(Cn2cc(/C=C(\C#N)c3ccc(C(=O)O)cc3)c3cccnc32)cn1` [Compound 3-2, (Z)-4-(1-cyano-2-(1-((6-methoxypyridin-3-yl)methyl)-1H-pyrrolo[2,3-b]pyridin-3-yl)vinyl)benzoic acid], 5.00 to 6.30; as for `COc1ccc(Cn2cc(/C=C(\C#N)c3ccc(C(=O)O)cc3)c3ccc(Cl)nc32)cn1` [Compound 3-4, (Z)-4-(2-(6-chloro-1-((6-methoxypyridin-3-yl)methyl)-1H-pyrrolo[2,3-b]pyridin-3-yl)-1-cyanovinyl)benzoic acid], above 6.30. Regarding `CCCn1cc(-n2c(C)c(/C=C(\C#N)c3ccc(C(=O)O)cc3)c3ccsc32)cn1` [Compound 5-1, (Z)-4-(1-cyano-2-(5-methyl-6-(1-propyl-1H-pyrazol-4-yl)-6H-thieno[2,3-b]pyrrol-4-yl)vinyl)benzoic acid], the negative logarithm of the IC50 (pIC50) was below 5.00.

A word on the pIC50: it is the IC50 on a negative log10 scale, so that one unit is a factor of ten.

The record behind these values is patent US9951026B2, “Heterocyclic vinyl autotaxin inhibitor compounds” (PharmAkea, Inc., priority 2013, dated 2018).
